Experimental findings from patent US4795752A, “Amide derivatives and antiallergic agents containing the same” (Terumo Kabushiki Kaisha, priority 1985, dated 1989) are described below.

This experiment relates to PCA reaction. Briefly: PCA reaction-inhibitory effects in rats (passive cutaneous anaphylaxis, oral administration, Evans Blue dye exudation). The class given is in vivo, rats (female Sprague-Dawley). Conditions: for Inhibition (%) mean ± SE: one hour before challenge; for ED50: Rattus norvegicus, from the percent inhibition-concentration graph, read-out: ID50 against exudation of the dye. Here is the method:
DNP-ascaris (1 mg) prepared by combining a swine ascaris extract with 2,4-dinitrophenyl sulfate was mixed with 20 mg of aluminum hydroxide gel. The mixture was administered to rats subcutaneously on the back, and at the same time the animals were intraperitoneally given 2×10^10 dead Bordetella pertussis respectively. The same procedures were repeated after 14 days, and blood sample was obtained after 21 days to produce antisera.
Female Sprague-Dawley strain rats (8 weeks old) were sensitized by subcutaneously administering 0.1 ml of 1:256 diluted antisera (titer=1024)respectively on the grained back. After 48 hours, groups of four rats were orally given the amide derivatives produced in the examples above at various concentrations. After one hour, the rats were challenged by intravenously administering a 0.5% physiological saline solution of Evans Blue containing 1 mg of the DNP-ascaris from the tail. After 30 minutes, the animal was sacrificed by bleeding and the portion of the skin with the dye exuded was cut off. The cut skin was treated with 1N--KOH solution, and the dye was extracted by adding 9 ml of 0.6N-phosphoric acid-acetone (5:13) mixture. The supernatant from centrifugal separation was measured for absorbancy at 620 nm to determine amount of the dye. Percent inhibition at each of the concentrations of the amide derivatives was calculated in comparison with amount of the dye for control group. 50% Inhibitory concentration (ID50) of the amide derivatives against exudation of the dye was determined from the percent inhibition-concentration graph. Results are shown in Table-I. Percent inhibition of tranilast, an antiallergic agent commercially available from Kissei Pharmaceutical Co., Ltd. under the trade name of Rizaben against PCA reaction was also shown in Table-I. As shown in Table-I, the amide derivatives of the invention produced high PCA reaction-inhibitory effects.

As for `COc1ccc(/C=C/C(=O)Nc2ccccc2C(=O)O)cc1OC` [Control, tranilast, reference compound], the ED50 is more than 300 mg/kg. In addition, the “Inhibition (%) mean ± SE” value (100 mg/kg) is given as 37 ± 8%. Further, under “200 mg/kg”, the “Inhibition (%) mean ± SE” value is 40 ± 10%. In addition, the “Inhibition (%) mean ± SE” value (300 mg/kg) is reported as 42 ± 5%.

For the compound `CCOC(=O)Oc1ccc(/C=C/C(=O)NCCN2CCC(OC(c3ccccc3)c3ccccc3)CC2)cc1OC(=O)OCC` [Example 4], the ED50 was 12 mg/kg. For the setting “3 mg/kg”, the “Inhibition (%) mean ± SE” value turned out to be 22 ± 14%. Further, the “Inhibition (%) mean ± SE” value (10 mg/kg) turned out to be 46 ± 10%. The “Inhibition (%) mean ± SE” value (30 mg/kg) was determined as 68 ± 7%.

With `CCOC(=O)Oc1ccc(/C=C/C(=O)NCCN2CCC(OC(c3ccccc3)c3ccccc3)CC2)cc1OC` [Example 2, 1-[2-[3-(3-methoxy-4-ethoxycarbonyloxyphenyl)-2-propenoyl]-aminoethyl]-4-benzhydroxypiperidine], the ED50 is 15 mg/kg. Moreover, the “Inhibition (%) mean ± SE” value (3 mg/kg) was 20 ± 15%. For the same compound, the “Inhibition (%) mean ± SE” value (10 mg/kg) turned out to be 41 ± 16%. Moreover, the “Inhibition (%) mean ± SE” value (30 mg/kg) is on record as 64 ± 5%.

On to `CCOC(=O)Oc1ccc(/C=C/C=C/C(=O)NCCN2CCC(OC(c3ccccc3)c3ccccc3)CC2)cc1OC` [Example 1, 1-[2-[5-(3-methoxy-4-ethoxycarbonyloxyphenyl)-2,4-pentadienoyl]aminoethyl]-4-benzhydroxypiperidine], for which the ED50 was determined as 10 mg/kg. Where the note is “3 mg/kg”, the “Inhibition (%) mean ± SE” value was found to be 26 ± 15%. The “Inhibition (%) mean ± SE” value (10 mg/kg) was determined as 51 ± 18%. Besides, the “Inhibition (%) mean ± SE” value (30 mg/kg) amounted to 71 ± 6%.

Regarding `CCOC(=O)Oc1ccc(/C=C/C=C/C(=O)NCCN2CCC(OC(c3ccccc3)c3ccccc3)CC2)cc1OC(=O)OCC` [Example 5, 1-[2-[5-(3,4-diethoxycarbonyloxyphenyl)-2,4-pentadienoyl]aminoethyl]-4-benzhydroxypiperidine], the “Inhibition (%) mean ± SE” value (3 mg/kg) amounted to 30 ± 16%, the “Inhibition (%) mean ± SE” value (10 mg/kg) came to 55 ± 10% and the “Inhibition (%) mean ± SE” value (30 mg/kg) is given as 75 ± 4%.

For the compound `CCOC(=O)Oc1ccc(/C=C/C=C/C(=O)NCCCN2CCN(C(c3ccccc3)c3ccccc3)CC2)cc1OC` [Example 3, 1-[3-[5-(3-methoxy-4-ethoxycarbonyloxyphenyl)-2,4-pentadienoyl]aminopropyl]-4-benzhydrylpiperazine], the ED50 came to 55 mg/kg. Besides, the “Inhibition (%) mean ± SE” value (10 mg/kg) amounted to 19 ± 14%. In addition, the “Inhibition (%) mean ± SE” value (30 mg/kg) is reported as 38 ± 15%. Moreover, where the note is “100 mg/kg”, the “Inhibition (%) mean ± SE” value worked out at 63 ± 5%.
